Reference: paper PMC12057046, “Elucidation of short linear motif-based interactions of the MIT and rhodanese domains of the ubiquitin-specific protease 8” (Biology Direct, 2025)

Experiments:
USP8 MIT domain [1] = experiment: SPOT array alanine scanning, USP8 MIT domain; assay type: binding, human; settings: cellulose-bound peptides, GST-tagged MIT 100 µM, 5% skim milk TBST, overnight 4 °C, anti-GST HRP chemiluminescence; normalized to wild type
Experimental: (§1) SPOT array alanine scanning of peptides was designed, and cellulose-bound peptides were synthesized using Fluorenylmethyloxycarbonyl (Fmoc) solid phase synthesis with a MultiPep synthesizer (INTAVIS Peptide Services, Tübingen, Germany). The membranes of predicted peptides were purchased by JPT Peptide Technologies (Berlin, Germany). The membranes were incubated with blocking buffer containing 5% skim milk in TBST (50 mM Tris, 150 mM NaCl pH 7.5, 0.05% Tween-20) for two hours at room temperature. The blocked membranes were incubated with GST-tagged proteins (100 µM for MIT domain and 150 µM for the Rhodanese domain) in blocking buffer overnight at 4 °C. After rinsed with TBST the membranes were incubated with HRP-conjugated anti-GST antibody (Cytiva, RPN1236; 1:3000 dilution) in blocking buffer for 1 h at 4 °C and subsequently rinsed with TBST to remove any excess antibody. The ECL reagent (Clarity Max Western ECL substrate, 1705062, BioRad) was used for chemiluminescence read-out with the ChemiDoc Imaging system (BioRad). The images were analysed with Fiji (ImageJ2 version 2.9.0). SLiMSearch4 was used to design the peptide arrays with known interactors predicted to contain the motifs. The background signal intensity was subtracted, and the corrected signal intensities were normalized to the positive control and presented as percentage.

USP8 MIT domain [2] = experiment: Proteomic peptide-phage display (ProP-PD) selection against USP8 MIT domain; assay type: binding, human; set-up: Confidence: scale not given here; settings: for NGS counts (%): ProP-PD, human disorderome library, GST-tagged MIT bait, four rounds of selection, percent of NGS counts associated with each peptide, Fig. 1B; for max_counts: Total NGS counts; for Confidence: calculated based on four metrics: overlapping peptides, replicated peptides, motif match, peptide counts; for Counts: fraction of NGS counts for a selection; for Promiscuity: number of baits selections where the peptide has been observed, calculated on the domain level; for Replicates: number of screens against the bait protein in which the peptide has been found; for Specificity: proportion for the current bait of the total NGS read counts of the peptide for all baits screened with this library
Summary of the method: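 GST-tagged USP8 MIT domain, immobilized on plates, used as bait for four rounds of phage selection with a human disorderome peptide library, after pre-clearing on GST at 4 °C. Binding 2 h at 4 °C, at least three replicates. Enriched peptides identified by next-generation sequencing.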

USP8 Rhod domain [3] = molecular target: T1, USP8 Rhod domain (Homo sapiens, UniProt P40818); experiment: ProP-PD selection against USP8 Rhod domain; assay type: binding; settings: for NGS counts (%): ProP-PD, human disorderome library, GST-tagged Rhod bait, four rounds of selection, Fig. 3A; for max_counts: Total NGS counts; for Counts: fraction of NGS counts for a selection; for Promiscuity: number of baits selections where the peptide has been observed, calculated on the domain level; for Replicates: number of screens against the bait protein in which the peptide has been found; for Specificity: proportion for the current bait of the total NGS read counts of the peptide for all baits screened with this library
T1 construct: USP8 Rhod (174–317) (UniProt: P40818); GST (cleaved yes); made in house; host or cells: Escherichia coli BL21-Gold (DE3)
T1 sequence (P40818 174-317): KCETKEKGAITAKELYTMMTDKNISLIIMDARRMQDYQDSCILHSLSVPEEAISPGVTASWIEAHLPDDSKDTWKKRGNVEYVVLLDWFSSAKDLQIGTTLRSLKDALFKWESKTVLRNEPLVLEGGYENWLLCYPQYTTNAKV
Experimental: We next evaluated the peptide binding of the Rhod domain by ProP-PD selections. […] (February 2025).
Four rounds of phage selections were carried out using the second generation human disorderome library or the constructed deep mutational scanning library. At least three individual replicates were used for each bait protein. 10 µg of GST-tagged proteins or GST control (diluted in PBS from the stock of proteins kept in the purification elution buffer) were immobilized in 100 µL PBS on a 96-well MaxiSorp (Nunc) plate overnight at 4 °C. The plates were incubated with blocking buffer (with 0.5% BSA in PBS) for 1 h at 4 °C followed by washing with 0.05% Tween 20 in PBS four times. The naïve phage library (10^11 CFU) was diluted in 1/5th volume PEG/NaCl (20% PEG-8000, 0.4 M NaCl) and 1X PBS, incubated on ice for 10 min and centrifuged at 10,000 [drawing 3] g for 10 min. The pellet was resuspended in the volume of PBS (100 µL/ well). The GST-coated control plate was incubated with 100 µL library per well in PBS for 1 h at 4 °C to remove non-specific binders. The supernatant was transferred to the target wells and incubated for 2 h at 4 °C. The wells were washed five times with 0.05% Tween 20 in PBS and the bound phages were eluted with 100 µL per well log-phase E. coli OmniMAX by incubating at 37° C while shaking. After 30 min, M13KO7 helper phages were added and incubated for an additional 45 min. The bacterial cultures were transferred to 1 mL 2YT supplemented with 100 µg/mL carbenicillin, 30 µg/mL kanamycin and 0.3 mM IPTG and grew overnight at 37 °C while shaking. The following day the cultures were centrifuged for 10 min at 2,000 [drawing 4] g, 4 °C. 1/10th volume of 10 [drawing 5] PBS was added to adjust the pH and heated at 65 °C for 10 min. The phage pools from each round were used as in-phages for the next round of selections.
The samples were prepared for NGS as previously described. […] The PCR products were normalized with 25 µL Mag-bind Total Pure NGS beads (Omega Biotek) and 10 µL of each eluted sample (Qiagen Elution Buffer) was pooled and cleaned-up with a PCR purification kit (Qiagen). The PCR product was confirmed by 2% agarose electrophoresis and the band was extracted with QIAquick Gel extraction Kit (Qiagen) and eluted with 30 µL TE buffer. The dsDNA was quantified using QuantiT PicoGreen dsDNA Assay Kit (Thermo Fisher) and sent for NGS (Illumina MiSeq v3, 1 × 150 bp read setup, 20% PhiX, NGI SciLifeLab facility, Sweden). The NGS data were demultiplexed, adapter regions were trimmed and sequences with an average quality of at least 20 were translated to peptide sequences. The NGS data were analysed using custom Python scripts. The total read NGS counts for each selection experiment of each peptide sequence were compiled and annotated in PepTools (https://slim.icr.ac.uk/tools/peptools/). Since ProP-PD is in essence a competition assay, the possibility of the input phage library influencing the selection outcome was explored. […] Pearson correlation coefficient and p-value were calculated using Python’s SciPy library.

USP8 Rhod domain [4] = molecular target: T1, USP8 Rhod domain; experiment: SPOT array of predicted peptides from known interactors, USP8 Rhod domain; assay type: binding; settings: for Percentage (%) normalized to highest intensity and corrected for background: Rhod-Peptide screening, SPOT array of predicted peptides, KIAA1614 positive control = 100; for SPOT intensity in words: GST-tagged Rhod 150 µM, positive control KIAA1614_568 − 583, array of 42 predicted peptides
Excerpt: The results therefore support that the USP8 Rhod domain binds to two distinct types of motifs (Fig. 4A, B). We used the motifs to scan for matching motifs in previously reported interactors using the SLiMSearch algorithm (Supplementary Table S8 A). As there was no clear match for the TET3-type motif except from only one hit, we focused on the KIAA1614-type motif. […] Both TP63 and USP21 are previously reported USP8 substrates, and the interactions may potentially contribute to substrate targeting. […] As the SHANK3 peptides (351-[…]−365 and 392-[…]−406) are closely located in the primary structure of SHANK3, it is tempting to speculate that both motifs contribute to the interactions between the full-length proteins by increasing the local concentration of binding motifs. […] Taken together, we find that the USP8 Rhod domain is a peptide binding domain that can be bound by peptides of two distinct types of motifs, with the Rx[LI]xGxxxPxxL motif and variants thereof being found in known USP8 substrates.
as §1

EVEHRDLEDRYNQLLK [Girdin1192 − 1207, CCDC88A-encoded protein Girdin peptide]
residues important for binding by SPOT array alanine scanning (USP8 MIT domain [1]): binding to the Girdin1192 − 1207 peptide was lost when the residues LExRYxxLL were mutated to alanine
NGS counts (%) (USP8 MIT domain [2]): 1.10%
max_counts (USP8 MIT domain [2]): 80
Confidence (USP8 MIT domain [2]): 2
Counts (USP8 MIT domain [2]): 0.002924
Promiscuity (USP8 MIT domain [2]): 1
Replicates (USP8 MIT domain [2]): 3
Specificity (USP8 MIT domain [2]): 1

HIWHYDEEYLPDASKP [TTBK2, Tau-tubulin kinase 2 peptide 503-518]
NGS counts (%) (USP8 Rhod domain [3]): 0.06%
max_counts (USP8 Rhod domain [3]): 76
Counts (USP8 Rhod domain [3]): 0.0007473
Promiscuity (USP8 Rhod domain [3]): 7
Replicates (USP8 Rhod domain [3]): 2
Specificity (USP8 Rhod domain [3]): 0.5152

LMNFLGDSNPFNLLRM [BCL11B, B-cell lymphoma/leukemia 11B peptide 279-294]
NGS counts (%) (USP8 Rhod domain [3]): 0.58%
max_counts (USP8 Rhod domain [3]): 421
Counts (USP8 Rhod domain [3]): 0.006181
Promiscuity (USP8 Rhod domain [3]): 6
Replicates (USP8 Rhod domain [3]): 3
Specificity (USP8 Rhod domain [3]): 0.9228

PEKPHDSLDSRIEMLL [SETD1B492 − 507, Histone-lysine N-methyltransferase SETD1B peptide]
residues important for binding by SPOT array alanine scanning (USP8 MIT domain [1]): confirmed the contributions of the motif residues in binding and the aspartic acid in position p2 of the motif
NGS counts (%) (USP8 MIT domain [2]): 1.37%
max_counts (USP8 MIT domain [2]): 70
Confidence (USP8 MIT domain [2]): 3
Counts (USP8 MIT domain [2]): 0.001866
Promiscuity (USP8 MIT domain [2]): 1
Replicates (USP8 MIT domain [2]): 3
Specificity (USP8 MIT domain [2]): 1

PVYSRPTVLMRAPPA
Percentage (%) normalized to highest intensity and corrected for background (USP8 Rhod domain [4]): 4.31%

QPNHGLALWEAKMKQL [TET3 1701-1716, Methylcytosine dioxygenase TET3 peptide, overlapping]
max_counts (USP8 Rhod domain [3]): 7
Counts (USP8 Rhod domain [3]): 0.00009459587683709846
Promiscuity (USP8 Rhod domain [3]): 2
Replicates (USP8 Rhod domain [3]): 3
Specificity (USP8 Rhod domain [3]): 0.8889

QPVYSSPRRLNCAE
Percentage (%) normalized to highest intensity and corrected for background (USP8 Rhod domain [4]): 17%

RAB3IP82 − 95: SSPxxL containing peptide from the RAB3A interacting protein (QPVYSSPRRLNCAE)
SPOT intensity in words (USP8 Rhod domain [4]): Weaker signals

RALLERCLKGEGEIE
Percentage (%) normalized to highest intensity and corrected for background (USP8 Rhod domain [4]): 2%

SCISEWEQKIPTYN
Percentage (%) normalized to highest intensity and corrected for background (USP8 Rhod domain [4]): 6%

SLASVRGLQGRSMSV
Percentage (%) normalized to highest intensity and corrected for background (USP8 Rhod domain [4]): 5%

SLRRLGGFPGPPTLFS
Percentage (%) normalized to highest intensity and corrected for background (USP8 Rhod domain [4]): 39%

SLRSLPHQLLLQRLQ
Percentage (%) normalized to highest intensity and corrected for background (USP8 Rhod domain [4]): 7%

SLRSLPHQLLLQRLQ [SHANK3 peptide]
SPOT intensity in words (USP8 Rhod domain [4]): Weaker signals

SPARSSPELLPSGV
Percentage (%) normalized to highest intensity and corrected for background (USP8 Rhod domain [4]): 1.56%

SPEKSSPQALVPNG
Percentage (%) normalized to highest intensity and corrected for background (USP8 Rhod domain [4]): 1%

SPLGRPESLLQSNTL
Percentage (%) normalized to highest intensity and corrected for background (USP8 Rhod domain [4]): -0.544%

SQLPSSPAQLSCRS
Percentage (%) normalized to highest intensity and corrected for background (USP8 Rhod domain [4]): 9%

SRSLSPTRLLSLPPD
Percentage (%) normalized to highest intensity and corrected for background (USP8 Rhod domain [4]): 6.64%

SSNSHRSLDGLSRTQ
Percentage (%) normalized to highest intensity and corrected for background (USP8 Rhod domain [4]): 5.49%

SSTSTRHLQGVEFEM
Percentage (%) normalized to highest intensity and corrected for background (USP8 Rhod domain [4]): -1.73%

SWAAGPGSLLAWLIL
Percentage (%) normalized to highest intensity and corrected for background (USP8 Rhod domain [4]): 1.45%

SYAKRRRLAGPSGLA
Percentage (%) normalized to highest intensity and corrected for background (USP8 Rhod domain [4]): 7%

SYAKRRRLAGPSGLA [SHANK3 peptide]
SPOT intensity in words (USP8 Rhod domain [4]): Weaker signals

TASSLPRKLLPWEEG
Percentage (%) normalized to highest intensity and corrected for background (USP8 Rhod domain [4]): -1.1%

TGLTVPPALLRANSD
Percentage (%) normalized to highest intensity and corrected for background (USP8 Rhod domain [4]): -1.11%

TRKFSSPPPLSITK
Percentage (%) normalized to highest intensity and corrected for background (USP8 Rhod domain [4]): 6%

YDTLIIRDYTQSSSSL [GRM5, Metabotropic glutamate receptor 5 peptide 1197-1212]
NGS counts (%) (USP8 Rhod domain [3]): 0.02%
max_counts (USP8 Rhod domain [3]): 23
Counts (USP8 Rhod domain [3]): 0.0001477
Promiscuity (USP8 Rhod domain [3]): 4
Replicates (USP8 Rhod domain [3]): 2
Specificity (USP8 Rhod domain [3]): 0.5417
